Among the data in patent publication US20210147381A1, “1,2,3,4-SUBSTITUTED QUINOLINE COMPOUNDS AS SIP MODULATORS” (AbbVie Deutschland GmbH & Co. KG, priority 2017, published 2021) are EC50 and Emax values, retold here.

Structures can show the parent of a compound that is named as a salt.

Format in all cases: cell-based
In test [1] the target is T1, human S1P3 receptor (S1PR3) (Homo sapiens, UniProt Q99500).
T1 construct: host or cells: CHO-K1
Description: Intracellular Ca2+ release (method 1), agonist potency, S1P3. Particulars: CHO-K1 cells expressing human S1PR3. The method, then: Agonistic activity and efficacy of compounds was assessed in recombinant cells using method 1 described below.
Agonist potency and efficacy were assessed by measurement of intracellular Ca^2+ release. Recombinant CHO-K1 cells (Euroscreen, Brussels, Belgium) expressing human S1PR5, S1PR1, S1PR3 or S1PR4 receptors, aequorin, and GTP binding protein Gq/i5 were cultured using a medium containing nutrient mixture F-12 Ham (Sigma-Aldrich) with 10% FBS, and 100 μg/mL gentamicin and equilibrated at 5% CO2.
15,000 cells in 20 μL medium were seeded into Biocoat poly-D-Lysine coated 384 well plates (Becton Dickinson #35-6663) and grown to 95% confluency after 24 h.
Culture medium was replaced by an assay buffer consisting of HBBS with Ca^2+ and Mg^2+ (Invitrogen #14025-050), 20 mmol/L Hepes (Sigma-Aldrich #H-3375), 2.5 mmol/L probenecid (Sigma-Aldrich #P-8761, and 0.1% BSA (Sigma-Aldrich #A-7030) pH 7.4. The Calcium 5 no-wash FLIPR assay kit (Molecular Devices #5000625) was performed as described in the kit instructions. Cells were incubated with Calcium 5 dye for 1 h at 37° C., 5% CO2 in the dark. After 45 min adaptation to RT assessment of agonist stimulation of intracellular Ca^2+ release was performed by addition of test compounds at various concentrations obtained by serial dilution. Phospho-fingolimod was used as positive control and reference agonist (intrinsic activity 100%).
Agonism of test compounds at the human S1Px receptors were characterized by the EC50 values (potencies) deduced from a nonlinear 4 parametric logistic curve fit to the measured fluorescence data after normalization to the lower and upper plateaus of the fitted reference agonist's (phospho-fingolimod)effect curve and by their efficacy (Emax) values represented by their maximum achievable effects in % of the reference agonist's efficacy, which is defined as an Emax of 100%.

Test [2] addresses T2, human S1P1 receptor (S1PR1) (Homo sapiens, UniProt P21453).
T2 construct: host or cells: CHO-K1
Description: Intracellular Ca2+ release (method 1), agonist potency, S1P1. Particulars: CHO-K1 cells expressing human S1PR1. In outline: (§1)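 CHO-K1 cells co-expressing the human S1P receptor, aequorin and Gq/i5 were loaded with Calcium 5 dye (1 h, 37° C), then equilibrated 45 min at RT in HBSS/20 mM Hepes/2.5 mM probenecid/0.1% BSA, pH 7.4. Fluorescence upon serially diluted compound fitted by 4-parameter logistic; EC50 and Emax normalized to phospho-fingolimod (100%).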

The target of test [3] is T3, human S1P5 receptor (S1PR5) (Homo sapiens, UniProt Q9H228).
T3 construct: host or cells: CHO-K1
T3 sequence (Q9H228 whole entry): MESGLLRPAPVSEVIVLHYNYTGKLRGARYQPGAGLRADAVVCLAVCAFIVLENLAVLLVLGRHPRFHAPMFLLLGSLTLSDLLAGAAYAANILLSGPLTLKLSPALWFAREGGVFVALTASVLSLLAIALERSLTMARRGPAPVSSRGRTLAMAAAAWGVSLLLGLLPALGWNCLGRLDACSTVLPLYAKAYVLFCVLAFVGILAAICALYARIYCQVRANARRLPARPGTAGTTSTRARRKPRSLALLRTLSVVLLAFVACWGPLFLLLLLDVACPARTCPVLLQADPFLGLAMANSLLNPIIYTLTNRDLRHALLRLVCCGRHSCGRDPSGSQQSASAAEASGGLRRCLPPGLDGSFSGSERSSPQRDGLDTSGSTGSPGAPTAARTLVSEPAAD
Description: Intracellular Ca2+ release (method 1), agonist potency and efficacy, S1P5. The note with it: for Emax: maximum effect in % of reference agonist phospho-fingolimod (100%), read-out: hS1P5 EMax; for EC50: recombinant CHO-K1 cells expressing human S1PR5, aequorin, Gq/i5, Ca2+ release, read-out: S1P5 EC50 range. The essentials:
as §1

Test [4] deals with T4, human S1P4 receptor (S1PR4) (Homo sapiens, UniProt O95977).
T4 construct: host or cells: CHO-K1
T4 sequence (O95977 1-384): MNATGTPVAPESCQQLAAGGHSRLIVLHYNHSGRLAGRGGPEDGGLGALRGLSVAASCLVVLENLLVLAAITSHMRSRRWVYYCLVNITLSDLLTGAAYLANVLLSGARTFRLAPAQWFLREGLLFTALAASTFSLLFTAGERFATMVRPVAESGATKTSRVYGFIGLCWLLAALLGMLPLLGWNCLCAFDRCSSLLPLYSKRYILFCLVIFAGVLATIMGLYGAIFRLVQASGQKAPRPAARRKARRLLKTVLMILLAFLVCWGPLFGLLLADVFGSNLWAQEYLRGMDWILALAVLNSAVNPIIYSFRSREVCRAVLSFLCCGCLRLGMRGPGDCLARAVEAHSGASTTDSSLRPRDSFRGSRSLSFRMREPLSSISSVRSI
Description: Intracellular Ca2+ release (method 1), agonist potency, S1P4. The note with it: CHO-K1 cells expressing human S1PR4. The essentials:
as §1

T1 sequence (Q99500 whole entry): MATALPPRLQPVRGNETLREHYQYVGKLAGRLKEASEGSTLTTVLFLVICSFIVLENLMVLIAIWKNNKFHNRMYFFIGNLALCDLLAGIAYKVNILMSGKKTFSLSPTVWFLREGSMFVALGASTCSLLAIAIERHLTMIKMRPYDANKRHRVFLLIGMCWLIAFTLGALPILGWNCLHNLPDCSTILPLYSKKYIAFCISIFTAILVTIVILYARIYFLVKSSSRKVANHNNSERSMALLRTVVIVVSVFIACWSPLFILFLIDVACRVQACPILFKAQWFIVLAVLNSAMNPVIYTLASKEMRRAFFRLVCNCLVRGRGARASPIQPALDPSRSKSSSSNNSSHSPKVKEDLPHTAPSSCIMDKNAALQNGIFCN
T2 sequence (P21453 whole entry): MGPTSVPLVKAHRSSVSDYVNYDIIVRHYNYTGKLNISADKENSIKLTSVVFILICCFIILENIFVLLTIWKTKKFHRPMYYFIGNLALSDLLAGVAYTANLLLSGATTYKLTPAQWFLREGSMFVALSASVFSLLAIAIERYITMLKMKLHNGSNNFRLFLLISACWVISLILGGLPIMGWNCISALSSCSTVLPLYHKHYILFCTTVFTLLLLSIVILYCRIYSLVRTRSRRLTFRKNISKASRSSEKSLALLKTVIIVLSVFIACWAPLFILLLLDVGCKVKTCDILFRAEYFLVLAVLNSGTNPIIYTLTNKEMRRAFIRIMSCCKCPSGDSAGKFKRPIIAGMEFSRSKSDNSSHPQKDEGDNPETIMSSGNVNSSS

As a reminder, the EC50 is the concentration needed to bring the measured effect to its halfway point. Broadly, the Emax is the size of the effect at its maximum, as opposed to the concentration needed. In the case of `O=C(O)CCCN1Cc2ccc(OCc3ccccc3OC(F)(F)F)cc2C2(CC2)C1` [Compound 14, 4-(6′-((2-(Trifluoromethoxy)benzyl)oxy)-1′H-spiro[cyclopropane-1,4′-isoquinolin]-2′(3′H)-yl)butanoic acid], the concentration for a half-maximal effect (EC50) is > 1 µM in test [1], > 1 µM in test [2] (cells given as bound), < 0.01 µM in test [3] and 0.1 to 1 µM in test [4]. Also, the Emax in test [3] lay in the range of 50 to 100%.

As for `O=C(O)CCCN1Cc2ccc(OCc3cccc(Cl)c3)cc2C2(CC2)C1` [Compound 24, 4-(6′-((3-Chlorobenzyl)oxy)-1′H-spiro[cyclopropane-1,4′-isoquinolin]-2′(3′H)-yl)butanoic acid], the EC50 in test [1] was > 1 µM; in test [2] (cells given as bound), > 1 µM; in test [3], < 0.01 µM; in test [4], 0.1 to 1 µM. Besides, the maximal response (Emax) in test [3] was in the range of 50 to 100%.

`CC(C)c1ccc(C#Cc2ccc3c(c2)C2(CC2)CN(CCC(=O)O)C3)cc1` [Compound 31, 3-(6′-((4-isopropylphenyl)ethynyl)-1′H-spiro[cyclopropane-1,4′-isoquinolin]-2′(3′H)-yl)propanoic acid acetic acid salt (1:1)]: the EC50 in test [1] was > 1 µM; in test [2], 0.1 to 1 µM; in test [3] it was < 0.01 µM; in test [4] (cells given as bound) it was > 1 µM. Further, the Emax in test [3] was > 100%.

On to `CC(C)Oc1ccc(C#Cc2ccc3c(c2)C2(CC2)CN(CCCC(=O)O)C3)cc1` [Compound 46, 4-(6′-((4-isopropoxyphenyl)ethynyl)-1′H-spiro[cyclopropane-1,4′-isoquinolin]-2′(3′H)-yl)butanoic acid], for which the EC50 was > 1 µM in test [1], > 1 µM in test [2] (cells given as bound), < 0.01 µM in test [3] and > 1 µM in test [4] (cells given as bound). Also, the Emax in test [3] is > 100%.

For the molecule `O=C(O)CCN1Cc2ccc(C#Cc3ccsc3)cc2C2(CC2)C1` [Compound 38, 3-(6′-(thiophen-3-ylethynyl)-1′H-spiro[cyclopropane-1,4′-isoquinolin]-2′(3′H)-yl)propanoic acid], the EC50 was > 1 µM in test [1], > 1 µM in test [2] (cells given as bound), 0.01 to 0.1 µM in test [3] and > 1 µM in test [4] (cells given as bound). Further, the Emax in test [3] was 50 to 100%.

With `O=C(O)CCN1Cc2ccc(C#Cc3c(Cl)cccc3Cl)cc2C2(CC2)C1` [Compound 11, 3-(6′-((2,6-dichlorophenyl)ethynyl)-1′H-spiro[cyclopropane-1,4′-isoquinolin]-2′(3′H)-yl)propanoic acid], the 50% effective concentration (EC50) was > 1 µM in test [1], > 1 µM in test [2] (cells given as bound), < 0.01 µM in test [3] and 0.01 to 0.1 µM in test [4]. The Emax in test [3] fell in the range of 50 to 100%.

Take `CCc1cccc(Cl)c1COc1ccc2c(c1)C1(CC1)CN(CC(=O)O)C2` [Compound 13, 2-(6′-((2-Chloro-6-ethylbenzyl)oxy)-1′H-spiro[cyclopropane-1,4′-isoquinolin]-2′(3′H)-yl)acetic acid]: the EC50 in test [1] is > 1 µM; in test [2] (cells given as bound), > 1 µM; in test [3] it was < 0.01 µM; in test [4] it was 0.1 to 1 µM. Also, in test [3], the maximal effect (Emax) is 50 to 100%.

For the molecule `CCOc1ccc(C#Cc2ccc3c(c2)C2(CC2)CN(CCCC(=O)O)C3)cc1` [Compound 3, 2′-(3-carboxypropyl)-6′-((4-ethoxyphenyl)ethynyl)-2′,3′-dihydro-1′H-spiro[cyclopropane-1,4′-isoquinolin]-2′-ium 2,2,2-trifluoroacetate], the EC50 in test [1] was > 1 µM; in test [2], 0.1 to 1 µM; in test [3] it was < 0.01 µM; in test [4] (cells given as bound), > 1 µM. In test [3], the maximal response (Emax) was 50 to 100%.

`O=C(O)CCCN1Cc2ccc(OCc3ccccc3F)cc2C2(CC2)C1` [Compound 19, 4-(6′-((2-Fluorobenzyl)oxy)-1′H-spiro[cyclopropane-1,4′-isoquinolin]-2′(3′H)-yl)butanoic acid]: the 50% effective concentration (EC50) in test [1] was > 1 µM; in test [2] (cells given as bound), > 1 µM; in test [3], < 0.01 µM; in test [4] (cells given as bound), > 1 µM. The Emax in test [3] is 50 to 100%.

As for `CCc1cccc(Cl)c1COc1ccc2c(c1)C1(CC1)CN(CCCC(=O)O)C2` [Compound 27, 4-(6′-((2-Chloro-6-ethylbenzyl)oxy)-1′H-spiro[cyclopropane-1,4′-isoquinolin]-2′(3′H)-yl)butanoic acid], the EC50 in test [1] was > 1 µM; in test [2] (cells given as bound), > 1 µM; in test [3] it was < 0.01 µM; in test [4], < 0.01 µM. For the same molecule, the Emax in test [3] is > 100%.

On to `O=C(O)CCN1Cc2ccc(C#Cc3ccc(F)cc3)cc2C2(CC2)C1` [Compound 41, 3-(6′-((4-fluorophenyl)ethynyl)-1′H-spiro[cyclopropane-1,4′-isoquinolin]-2′(3′H)-yl)propanoic acid acetic acid salt (1:1)], for which the EC50 was > 1 µM in test [1], > 1 µM in test [2] (cells given as bound), 1 to 10 µM in test [3] and > 1 µM in test [4] (cells given as bound). The Emax in test [3] was < 50%.

`O=C(O)CCCN1Cc2ccc(C#Cc3ccc(OC4CCCC4)cc3)cc2C2(CC2)C1` [Compound 44, 4-(6′-((4-(cyclopentyloxy)phenyl)ethynyl)-1′H-spiro[cyclopropane-1,4′-isoquinolin]-2′(3′H)-yl)butanoic acid]: the 50% effective concentration (EC50) was > 1 µM in test [1], 0.1 to 1 µM in test [2], < 0.01 µM in test [3] and > 1 µM in test [4] (cells given as bound). The Emax in test [3] was > 100%.

Consider `O=C(O)CCCN1Cc2ccc(OCc3cccc(OC(F)(F)F)c3)cc2C2(CC2)C1` [Compound 20, 4-(6′-((3-(Trifluoromethoxy)benzyl)oxy)-1′H-spiro[cyclopropane-1,4′-isoquinolin]-2′(3′H)-yl)butanoic acid], for which the EC50 is > 1 µM in test [1], > 1 µM in test [2] (cells given as bound), 0.01 to 0.1 µM in test [3] and 0.1 to 1 µM in test [4]. In addition, the maximal response (Emax) in test [3] was < 50%.

As to `O=C(O)CCN1Cc2ccc(C#Cc3ccccc3)cc2C2(CC2)C1` [Compound 39, 3-(6′-(phenylethynyl)-1′H-spiro[cyclopropane-1,4′-isoquinolin]-2′(3′H)-yl)propanoic acid acetic acid salt (1:1)], the 50% effective concentration (EC50) was > 1 µM in test [1], > 1 µM in test [2] (cells given as bound), 0.1 to 1 µM in test [3] and > 1 µM in test [4] (cells given as bound). For the same molecule, the maximal effect (Emax) in test [3] lay within 50 to 100%.

Regarding `CCc1cccc(Cl)c1COc1ccc2c(c1)C1(CC1)CN(C(C)C(=O)O)C2` (centres unmarked) [Compound 28, 2-(6′-((2-Chloro-6-ethylbenzyl)oxy)-1′H-spiro[cyclopropane-1,4′-isoquinolin]-2′(3′H)-yl)propanoic acid], the half-maximal effective concentration (EC50) was > 1 µM in test [1], > 1 µM in test [2] (cells given as bound), 0.01 to 0.1 µM in test [3] and 0.1 to 1 µM in test [4]. The Emax in test [3] lay in the range of 50 to 100%.

With `CCOc1ccc(C#Cc2ccc3c(c2)C2(CC2)CN(CCC(=O)O)C3)cc1` [Compound 34, 3-(6′-((4-ethoxyphenyl)ethynyl)-1′H-spiro[cyclopropane-1,4′-isoquinolin]-2′(3′H)-yl)propanoic acid acetic acid salt (1:1)], the EC50 in test [1] is > 1 µM; in test [2] (cells given as bound), > 1 µM; in test [3] it was < 0.01 µM; in test [4] (cells given as bound) it was > 1 µM. In addition, the Emax in test [3] fell in the range of 50 to 100%.
